Data as given in ChEMBL document CHEMBL3227982, “Synthesis of some 4-substituted 8-amino-6-methoxyquinolines as potential antimalarials” (J Med Chem, 1979).
Activity calls are given as the source filed them. The calls are words filed in the database; no cut-off is given here.

Tests used:
[1] = tested on: Plasmodium berghei; assay: Antimalarial activity against blood schizonticidal Plasmodium berghei infected in mouse assessed as change in host mean survival time at 40 mg/kg; format: functional
[2] = tested on: Plasmodium berghei; assay: Antimalarial activity against blood schizonticidal Plasmodium berghei infected in mouse assessed as change in host mean survival time at 20 mg/kg; format: functional
[3] = tested on: Plasmodium berghei; assay: Antimalarial activity against blood schizonticidal Plasmodium berghei infected in mouse assessed as change in host mean survival time at 80 mg/kg; format: functional
[4] = tested on: Plasmodium berghei; assay: Antimalarial activity against blood schizonticidal Plasmodium berghei infected in mouse assessed as change in host mean survival time at 320 mg/kg; format: functional
[5] = tested on: Plasmodium cynomolgi; assay: Antimalarial activity against Plasmodium cynomolgi infected in rhesus monkey assessed as disease relapsing day at 0.125 mg/kg administered qd for 7 days via stomach tube; format: functional
[6] = tested on: Plasmodium berghei yoelii; assay: Antimalarial activity against sporozite stage of Plasmodium berghei yoelii infected in mouse assessed as curative activity at 160 mg/kg, po; format: functional, organism-based; set-up: dose 160 mg/kg
[7] = tested on: Plasmodium berghei; assay: Antimalarial activity against blood schizonticidal Plasmodium berghei infected in mouse assessed as change in host mean survival time at 160 mg/kg; format: functional
[8] = tested on: Plasmodium berghei yoelii; assay: Antimalarial activity against sporozite stage of Plasmodium berghei yoelii infected in mouse assessed as host survival at 10 to 40 mg/kg, po; format: functional, organism-based
[9] = tested on: Plasmodium berghei yoelii; assay: Antimalarial activity against sporozite stage of Plasmodium berghei yoelii infected in mouse assessed as host survival at 10 to 160 mg/kg, sc; format: functional, organism-based
[10] = tested on: Plasmodium berghei; assay: Antimalarial activity against blood schizonticidal Plasmodium berghei infected in mouse assessed as change in host mean survival time at 640 mg/kg; format: functional
[11] = tested on: Plasmodium cynomolgi; assay: Antimalarial activity against Plasmodium cynomolgi infected in rhesus monkey assessed as disease relapsing day at 0.5 mg/kg administered qd for 7 days via stomach tube; format: functional
[12] = tested on: Plasmodium cynomolgi; assay: Antimalarial activity against Plasmodium cynomolgi infected in rhesus monkey assessed as curative activity without disease relapses until 90 days at 0.75 mg/kg administered qd for 7 days via stomach tube; format: functional, organism-based; set-up: dose 0.75 mg/kg
[13] = tested on: Mus musculus; assay: Toxicity in mouse infected with blood schizonticidal Plasmodium berghei assessed as mortality at 320 mg/kg measured on days 2 to 5 after infection; format: organism-based; set-up: dose 320 mg/kg; conditions: in vivo
[14] = tested on: Mus musculus; assay: Toxicity in mouse infected with blood schizonticidal Plasmodium berghei assessed as mortality at 640 mg/kg measured on days 2 to 5 after infection; format: organism-based; set-up: dose 640 mg/kg; conditions: in vivo
[15] = tested on: Plasmodium cynomolgi; assay: Antimalarial activity against Plasmodium cynomolgi infected in rhesus monkey assessed as disease relapsing day at 0.375 mg/kg administered qd for 7 days via stomach tube; format: functional
[16] = tested on: Mus musculus; assay: Toxicity in mouse infected with blood schizonticidal Plasmodium berghei assessed as mortality at 160 mg/kg measured on days 2 to 5 after infection; format: organism-based; set-up: dose 160 mg/kg; conditions: in vivo
[17] = tested on: Plasmodium cynomolgi; assay: Antimalarial activity against Plasmodium cynomolgi infected in rhesus monkey assessed as curative activity without disease relapses until 90 days at 0.375 mg/kg administered qd for 7 days via stomach tube; format: functional, organism-based; set-up: dose 0.375 mg/kg
[18] = tested on: Mus musculus; assay: Toxicity in mouse infected with blood schizonticidal Plasmodium berghei assessed as mortality at 80 mg/kg measured on days 2 to 5 after infection; format: organism-based; set-up: dose 80 mg/kg; conditions: in vivo
[19] = tested on: Plasmodium cynomolgi; assay: Antimalarial activity against Plasmodium cynomolgi infected in rhesus monkey assessed as curative activity without disease relapses until 90 days at 0.125 mg/kg administered qd for 7 days via stomach tube; format: functional, organism-based; set-up: dose 0.125 mg/kg
[20] = tested on: Plasmodium cynomolgi; assay: Antimalarial activity against Plasmodium cynomolgi infected in rhesus monkey assessed as curative activity without disease relapses until 90 days at 0.25 mg/kg administered qd for 7 days via stomach tube; format: functional, organism-based; set-up: dose 0.25 mg/kg
[21] = tested on: Plasmodium cynomolgi; assay: Antimalarial activity against Plasmodium cynomolgi infected in rhesus monkey assessed as disease relapsing day at 0.25 mg/kg administered qd for 7 days via stomach tube; format: functional
[22] = tested on: Plasmodium cynomolgi; assay: Antimalarial activity against Plasmodium cynomolgi infected in rhesus monkey assessed as disease relapsing day at 1 mg/kg administered qd for 7 days via stomach tube; format: functional
[23] = tested on: Plasmodium cynomolgi; assay: Antimalarial activity against Plasmodium cynomolgi infected in rhesus monkey assessed as curative activity without disease relapses until 90 days at 1 mg/kg administered qd for 7 days via stomach tube; format: functional, organism-based; set-up: dose 1 mg/kg

Structure (SMILES) | MST [1] [days] | MST [2] [days] | MST [3] [days] | MST [4] [days] | MST [7] [days] | MST [10] [days] | Time [11] [days] | Activity [14] | further results
COc1ccc(SCCc2ccnc3c(NC(C)CCCN)cc(OC)cc23)cc1 (configuration not stated) | 0.3 | 0.1 | 2.1 | 6.1 | 2.7 | 7.5 | – | – | Time [5]: 9 days; Activity [6]: Active; Activity [8]: inactive; Activity [9]: inactive
COc1cc(NC(C)CCCN)c2ncccc2c1 (configuration not stated) [PRIMAQUINE] | 5 | 4 | 9.4 | – | – | – | 11 | Toxic | Activity [12]: Active; Activity [13]: Toxic; Time [15]: 11 days; Activity [16]: Toxic; Activity [17]: inactive
CCc1ccnc2c(NCCCCCCN)cc(OC)cc12 | 0.8 | – | 4.8 | – | – | – | – | – | Activity [18]: Toxic; Activity [16]: Toxic
CCc1ccnc2c(NC(C)CCCN(CC)CC)cc(OC)cc12 (configuration not stated) | 1.5 | 1.1 | 3.7 | – | 6.6 | – | – | Toxic | Activity [13]: Toxic
CCc1ccnc2c(NCCCCN)cc(OC)cc12 | 1.7 | 0.9 | 2.1 | 6.3 | 2.9 | 7.9 | – | Non-toxic | –
COc1cc(NC(C)CCCN)c2nccc(CCSc3ccc(Cl)cc3)c2c1 (configuration not stated) | 3.3 | 2.3 | 6.3 | 8.9 | 7.7 | 14.6 | – | – | –
CCc1ccnc2c(NC(C)CCCN)cc(OC)cc12 (configuration not stated) | 3.8 | 2.8 | 5.2 | 11.5 | 6.4 | – | 28 | – | Activity [19]: inactive; Activity [20]: inactive; Time [21]: 7 days; Time [22]: 37 days
CCc1ccnc2c(NCCCCCCN(CC)CC)cc(OC)cc12 | 1.7 | 0.5 | 3.3 | 6.7 | 5.5 | 7.9 | – | – | –
C=Cc1ccnc2c(NC(C)CCCN)cc(OC)cc12 (configuration not stated) | 1.7 | 1.1 | 5.9 | 7.7 | 8.7 | – | 10 | Toxic | Activity [13]: Toxic; Activity [20]: inactive; Time [21]: 7 days; Time [22]: 24 days
CCc1ccnc2c(NC(C)CCCNC(C)C)cc(OC)cc12 (configuration not stated) | 2.3 | -0.3 | 3.5 | 10.5 | 6.7 | – | – | Toxic | –
CCc1ccnc2c(NCCCCCCN3CCN(CCO)CC3)cc(OC)cc12 | 0.7 | 0.1 | 2.7 | 4.1 | 2.5 | – | – | Toxic | –
COc1cc(NC(C)CCCN)c2nccc(CCSc3ccc(F)cc3)c2c1 (configuration not stated) | – | – | – | – | – | – | 7 | – | Activity [23]: inactive; Activity [20]: inactive; Time [21]: 13 days; Time [22]: 6 days
